Data set [1] has as its system hyperoxia-exposed BPD mouse model. Put plainly: BPD mouse model: BPD-PH, RV hypertrophy ratios. Type of data set: in vivo. The source says: AVR-48 protects the lungs from progressing towards BPD-PH. BPD-PH is characterized by abnormal vascular remodeling and rarefication of the pulmonary vasculature leading to vascular growth arrest which eventually leads to increased pulmonary vascular resistance and right heart failure (Hansmann, Sallmon et al. 2021). A similar effect is also seen in mouse models of experimental BPD, as reported by the present inventors, previously (Sun, Choo-Wing et al. 2013, Sureshbabu, Syed et al. 2016, Syed, Das et al. 2017, Leary, Das et al. 2019). There is hypertrophy of the right ventricle (RV) with an increase in the thickness of interventricular septum (IVS). […] There was no change in the ratio in the RA group treated with the drug, which was similar to RA control group (FIG. 8A).
Morphometry and quantification. To study chord length, septal thickness and radial alveolar count in the lungs, RV, LV and IVS thickness, 5 μm-thick left-lobe lung and heart paraffin-embedded sections were stained with H&E. Multiple randomly chosen areas (at least 10 areas) from each section were photographed using 100× total magnification. Sections with large airways or blood vessels from the lung were excluded for lung morphometry while quantitative measurements of PH-induced RV hypertrophy ratios (RV/LV and RV/LV+IVS) were done using the methodology described previously (Sun, Choo-Wing et al. 2013). The lung morphometry parameters were measured as described (Bhandari, Choo-Wing et al. 2008, Leary, Das et al. 2019, Das, Acharya et al. 2020, Das, Curstedt et al. 2020) either using ImageJ (a free software of NIH) or CellSens software (version 7, Olympus).

A further data set has as its system pre-term lamb BPD model. Briefly: Pre-term lamb BPD model: BAL fluid protein, VEGF, ICAM-1. Type of data set: in vivo. Conditions: for VEGF concentrations in BAL fluid: vs vehicle after 10 days. Here is the method:
(§1) A total 9 lambs were used for this study. One dose of Curosurf was given intratracheally to the PT lamb just after birth. Randomized doses of compound AVR-48 (8) (0, 0.1, 0.3, 1.0 and 3.0 mg/kg) were administered intravenously every 12 hr after the initial dose that will be given at 6 hr after delivery to n=2-4 lambs via slow intravenous injection. The beginning treatment at 6 hr post-delivery is selected to represent the human case where neonatologists attempt to allow an infant to breath without mechanical ventilation, if possible, and then begin invasive respiratory support as necessary. Whole blood was drawn from PT lambs at the time of delivery (“pre-dose”), immediately after dosing (IAD), at 15, 30, 45, and 60 min, and at 2, 4, 8, 12, 24, 48, 72, and 96 hr after the initial dose. Plasma extractions and bioanalysis of compound AVR-48 (8) were performed using a qualified bioanalysis method already developed by us. The PK parameters were calculated following both non-Compartmental Pharmacokinetic Modeling and population Pharmacokinetic Modeling as described by Roberts et al previously (Roberts, Stockmann et al. 2016). Blood was collected every 15 min for the first 90 min of postnatal life, followed by every 3 hours for 12 hours and then spaced at 1.5 d, 2.5 d, 3.5 d, 6.5 d, and 9.5 d for analysis of cytokines (Visconti, Senthamaraikannan et al. 2018) and VEGF levels (Albertine, Dahl et al. 2010). The blood samples also were analyzed for hematology and liver enzymes. After 6-7 d of mechanical ventilation, the lambs will be weaned from mechanical ventillation and weaned to non-invasive support for 3 d to ascertain longer-term outcome (Dahl, Bowen et al. 2018). Terminally, the PT lambs were euthanized after 10 days and their heart/lungs and brain were removed. Ex vivo BAL of the right cranial lobe (it has its own bronchus, pulmonary artery and vein) was done for similar analyses. Tracheal aspirates were collected according to the protocol for cytokines, BAL protein, ICAM-1 and VEGF. The spleen was collected to analyze immune cell population, using FACS.
Bronchoalveolar lavage fluid (BALF) Analysis. Pups were sacrificed on PN14, and the trachea was cannulated with a small-caliber needle by instilling PBS endotracheally at […] pressure for 15 minutes. Two volumes of 300 μL of cold 1×PBS were instilled, gently aspirated, and pooled. Samples were centrifuged at 1000×g for 10 minutes at 4° C. The supernatant was collected, and total protein was quantified using the Pierce™ BCA Protein Assay Kit (Fisher Scientific Co, Houston, TX). The total cell count was done using the TC20 cell counter (BioRad, Hercules, CA). Similar method was followed for analyzing the protein concentration in BAL fluid collected from preterm lambs.

The nature of data set [2]: PK in preterm lambs after IV dosing. Type of data set: in vivo, lamb. Here is the method: as §1
A further data set addresses T1, TLR4 (Homo sapiens, UniProt O00206).
T1 construct: Cell lysates were prepared, total protein was quantified and treated with different concentrations; host or cells: THP-1 cells stimulated with PMA for 48 h, then lysed
Briefly: TLR4 assay: unbound TLR4 ELISA in PMA-stimulated THP-1 cell lysates. Type of data set: binding. Conditions: THP-1 human monocyte cells. The protocol:
FIG. 26A, TLR4 assay: 1×10^5 THP cells (ATCC) were seeded in 24 well plates and stimulated with phorbol myristyl actetate (PMA, 200 ng/mL) for 48 h. Cell lysates were prepared, total protein was quantified and treated with different concentrations (4, 16, 62.5 and 250 μM) of the AVR-48 for 2 h. ELISA was performed after to assess unbound TLR4 following manufacturer's instruction (Raybiotech). TLR4 IC50 of the AVR-48 was calculated using GraphPad Prism7.04.

In the next data set the test system is whole cord blood (WCB). Briefly: Cytokines in whole cord blood (WCB). Type of data set: cell-based, human. The source says: IL-1β and IFN-Υ were not detected with either AVR-48 alone or in combination with LPS. N=[…], **p<0.05, ***p<0.005, ****p<0.001, One-way ANOVA.
Where [3] appears, read: vs vehicle treated lambs after 10 days.
Setting [4] is: sheep, plasma, single IV dose 3.0 mg/kg/dose saline solution, n=3 preterm lambs.
[5] abbreviates: AVR-48 alone or in combination with LPS.

T1 sequence (O00206 24-839): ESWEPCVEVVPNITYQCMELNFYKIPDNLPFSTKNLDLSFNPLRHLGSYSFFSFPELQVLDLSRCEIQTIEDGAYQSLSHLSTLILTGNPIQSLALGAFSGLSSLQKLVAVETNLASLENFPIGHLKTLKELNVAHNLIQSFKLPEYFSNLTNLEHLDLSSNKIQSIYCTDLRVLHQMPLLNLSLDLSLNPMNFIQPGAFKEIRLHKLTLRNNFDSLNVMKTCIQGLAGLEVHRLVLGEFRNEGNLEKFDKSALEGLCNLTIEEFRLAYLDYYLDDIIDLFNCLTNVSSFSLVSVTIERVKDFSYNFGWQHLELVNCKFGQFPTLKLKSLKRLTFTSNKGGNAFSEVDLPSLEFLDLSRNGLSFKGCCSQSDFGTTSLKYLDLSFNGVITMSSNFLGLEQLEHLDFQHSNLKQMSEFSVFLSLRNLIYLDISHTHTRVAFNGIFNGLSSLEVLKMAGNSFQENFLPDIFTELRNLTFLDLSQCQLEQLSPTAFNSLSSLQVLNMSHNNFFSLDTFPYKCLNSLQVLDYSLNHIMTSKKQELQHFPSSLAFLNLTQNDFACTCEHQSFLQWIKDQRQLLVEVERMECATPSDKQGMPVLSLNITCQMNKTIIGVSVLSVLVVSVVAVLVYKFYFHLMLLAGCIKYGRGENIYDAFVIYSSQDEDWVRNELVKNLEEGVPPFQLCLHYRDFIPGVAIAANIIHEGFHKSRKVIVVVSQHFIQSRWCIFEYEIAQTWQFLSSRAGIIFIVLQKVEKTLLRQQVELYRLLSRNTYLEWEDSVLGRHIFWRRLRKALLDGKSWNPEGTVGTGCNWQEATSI

As to `CC(=O)N[C@@H]1C(Oc2ccc([N+](=O)[O-])cc2)OC(CO)C(O)C1O` (stereo partly drawn) [AVR-48], in data set [1] (BPD group after treatment), the “Fulton's Index (RV/LV+IVS)” value is recorded as “decreased significantly” and the “RV/left ventricle (LV) ratio” value is “decreased significantly”. In data set [1] (RA group treated with the drug vs RA control), the “RV/LV ratio and Fulton's Index in room air animals” value is on record as “no change”. In addition, the “VEGF concentrations in BAL fluid” value in the data set on pre-term lamb BPD model (high dose (3.0 mg/kg)) is recorded as “no effect”. For the same compound, the “VEGF concentrations in BAL fluid” value in the data set with pre-term lamb BPD model (low doses) is listed as “increase”. Besides, in the data set with pre-term lamb BPD model (setting [3]), the “ICAM-1 concentrations in BAL fluid” value is given as “increase” and the “total protein concentration in BAL fluid” value is listed as “decreased”. Besides, the drug accumulation entry in data set [2] (repeat IV dosing for 7 days) is “no drug accumulation”. Moreover, in data set [2] (setting [4]), the concentration peaked (Cmax) at 12.2 ± 5.6 µM and the half-life was 33.6 min. For the same compound, the plasma concentration profile result in data set [2] (single IV dose 3.0 mg/kg/dose) is on record as “linear decline in drug concentration”. On TLR4, the “binding to TLR4” value is “binds to TLR4”. The “binding to TLR4” value on TLR4 (listed as 8) was “bind TLR4”. In the data set with whole cord blood (WCB) (setting [5]), the IFN-Υ result is on record as “not detected” and the IL-1β result is reported as “not detected”. Further, the IL-10 increase with whole cord blood (WCB) (AVR-48 alone, 10 μM) is recorded as about 1.5 fold. In addition, the IL-10 entry in the data set on whole cord blood (WCB) (LPS+AVR-48, 10 μM) is recorded as “increased”. The TNF-α level entry with whole cord blood (WCB) (alone or in combination with LPS) is listed as “significantly decreased”.

Source of the values: patent US12440471B2, “Compositions and methods for the treatment of bronchopulmonary dysplasia (BPD) and BPD-associated pulmonary hypertension” (AyuVis Research, Inc., priority 2021, dated 2025).
